The results in this text go back to US5786372A, “Heteroaryl compounds used as pharmaceuticals” (SmithKline Beecham p.l.c., priority 1992, dated 1998).

Structures are written as SMILES. pIC50: −log10 of the molar value. Structures can show the parent of a compound that is named as a salt.

For the experiment, the target named is T1, 5-HT4 receptor (Cavia porcellus, UniProt O70528).
T1 construct: Longitudinal muscle-myenteric plexus preparations, approximately 3 cm long, are obtained from the distal colon region; from tissue; host or cells: guinea-pig distal colon, longitudinal muscle-myenteric plexus preparation
T1 sequence (O70528 whole entry): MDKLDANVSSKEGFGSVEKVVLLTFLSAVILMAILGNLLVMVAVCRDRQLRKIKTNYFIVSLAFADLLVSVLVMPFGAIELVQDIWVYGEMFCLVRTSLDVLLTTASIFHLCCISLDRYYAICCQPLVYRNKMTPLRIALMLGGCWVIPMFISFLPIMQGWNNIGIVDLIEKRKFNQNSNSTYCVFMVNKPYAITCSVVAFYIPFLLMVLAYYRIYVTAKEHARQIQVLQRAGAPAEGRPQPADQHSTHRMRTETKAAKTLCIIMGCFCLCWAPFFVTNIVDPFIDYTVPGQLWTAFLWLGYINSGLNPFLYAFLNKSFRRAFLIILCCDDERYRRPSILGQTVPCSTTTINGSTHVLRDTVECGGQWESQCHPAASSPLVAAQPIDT
Kind of experiment: Guinea pig colon 5-HT4 receptor antagonist activity (longitudinal muscle-myenteric plexus, 5-HT evoked contraction). As to conditions: -log concentration of antagonist which reduces the 5-HT evoked contraction by 50%; guinea-pig distal colon; methiothepin 10^-7 M and granisetron 10^-6 M present. Here is the method: 5-HT4 RECEPTOR ANTAGONIST ACTIVITY
Male guinea-pigs, weighing 250-400 g are used. Longitudinal muscle-myenteric plexus preparations, approximately 3 cm long, are obtained from the distal colon region. These are suspended under a 0.5 g load in isolated tissue baths containing Krebs solution bubbled with 5% CO2 in O2 and maintained at 37° C. In all experiments, the Krebs solution also contains methiothepin 10^-7 M and granisetron 10^-6 M to block effects at 5-HT1, 5-HT2 and 5-HT3 receptors.
After construction of a simple concentration-response curve with 5-HT, using 30 s contact times and a 15 min dosing cycle, a concentration of 5-HT is selected so as to obtain a contraction of the muscle approximately 40-70% maximum (10^-9 M approx). The tissue is then alternately dosed every 15 min with this concentration of 5-HT and then with an approximately equi-effective concentration of the nicotine receptor stimulant, dimethylphenylpiperazinium (DMPP). After obtaining consistent responses to both 5-HT and DMPP, increasing concentrations of a putative 5-HT4 receptor antagonist are then added to the bathing solution. The effects of this compound are then determined as a percentage reduction of the contractions evoked by 5-HT or by DMPP. […] A compound which reduces the response to 5-HT but not to DMPP is believed to act as a 5-HT4 receptor antagonist.

`Nc1c(Cl)cc(C(=O)OCC2CCN(CCCO)CC2)c2c1OCCO2` [Example E1, [1-(3Hydroxypropyl)-4-piperidinyl]methyl 8-amino-7-chloro-1,4-benzodioxan-5-carboxylate hydrochloride] showed a pIC50 of 10.20.
